The results in this text go back to patent US10329309B2, “3-(3H-imidazo[4,5-B]pyridin-2-yl)-1H-pyrazolo[4,3-B]pyridines and therapeutic uses thereof” (Samumed, LLC, priority 2015, dated 2019).

Some results are limits rather than exact numbers.

Assay type in all cases: cell-based
Test [1] concerns primary human fibroblasts derived from IPF patients (LL29 cells), α-smooth muscle actin (αSMA). As to the kind of experiment: Inhibition of the fibrotic process: TGF-β1-treated primary human fibroblasts from IPF patients, αSMA staining. To be noted: Fibroblast, 96 h, 4 days; for EC50: LL29 fibroblasts from IPF patients, TGF-β1 20 ng/mL, inhibition of fibrotic process; for inhibition at 10 µM: LL29 fibroblasts, TGF-β1 treated, read-out: percent inhibition at 10 μM (given for EC50 of >10 μM). The procedure, abridged:
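Read-out: fraction of αSMA-positive cells by high-content imaging, SYTOX-stained dead cells excluded, normalized to TGF-β1/DMSO wells. Cells got compound (10 μM–[…], 11 points) plus TGF-β1 20 ng/mL for 4 days. EC50 from triplicate curves; above 10 μM, % inhibition at 10 μM given.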

The test system of another test is SW480 colon cancer cells. As to the kind of experiment: Cell viability assay (CellTiter-Blue), four days. To be noted: Homo sapiens, 96 h; for EC50: CellTiter-Blue cell viability; for inhibition at 10 µM: read-out: percent inhibition at 10 μM (given for EC50 of >10 μM). Summed up:
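4-day exposure, 37 °C/5% CO2; ~2×10^3 SW480 cells/well; 8-pt 1:3 curve, 10–0.0045 μM, duplicates vs DMSO controls. Resazurin→resorufin fluorescence readout, ~3 h. EC50 by nonlinear fit; if >10 μM, % inhibition at 10 μM reported.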

For test [2], the system named is Wnt activity (Sp5-Luc reporter, SW480 colon carcinoma cells). As to the kind of experiment: Screening assay for Wnt activity: Sp5-Luc reporter gene assay in SW480 cells. Particulars: Homo sapiens; for EC50: overnight incubation, 10-point dose-response from 10 μM; for inhibition at 10 µM: 10 μM compound, read-out: percent inhibition at 10 μM (given for EC50 of >10 μM). The procedure, abridged:
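Luminescence (BrightGlo) read after overnight 37 °C exposure of Sp5-Luc SW480 reporter cells, 4,000/well in 1% FBS, to compound dosed 1:3 over 10 points from 10 μM with 0.1% DMSO. Values normalized to DMSO-only cells, fitted with variable-slope four-parameter model; where EC50 exceeds 10 μM, % inhibition at 10 μM reported.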
In general terms: A reporter such as luciferase makes a cellular process visible.

For orientation: EC50 means the midpoint of the concentration-response curve. Read a low EC50 as a more potent agent. In the case of `CN1CCN(c2ccnc3[nH]c(-c4n[nH]c5ccc(-c6cncc(OC7CCCCC7)c6)nc45)nc23)CC1` [Compound 639, 5-(5-(Cyclohexyloxy)pyridin-3-yl)-3-(7-(4-methylpiperazin-1-yl)-3H-imidazo[4,5-b]pyridin-2-yl)-1H-pyrazolo[4,3-b]pyridine], the 50% effective concentration (EC50) in test [1] is 3.27 µM; in the test with SW480 colon cancer cells, 5.85 µM; in test [2] it was 4.06 µM.

As usually defined, the inhibition is how much of the control response was suppressed. In the case of `CN1CCN(c2ccnc3[nH]c(-c4n[nH]c5ccc(-c6cnccn6)nc45)nc23)CC1` [Compound 648, 3-(7-(4-Methylpiperazin-1-yl)-3H-imidazo[4,5-b]pyridin-2-yl)-5-(pyrazin-2-yl)-1H-pyrazolo[4,3-b]pyridine], the EC50 in test [1] is more than 10 µM; in the test with SW480 colon cancer cells, 3.91 µM; in test [2], 4.34 µM. The inhibition at 10 µM in test [1] was found to be 0%.

Regarding `c1cnc2[nH]c(-c3n[nH]c4ccc(-c5cn[nH]c5)nc34)nc2c1` [Compound 651, 3-(3H-Imidazo[4,5-b]pyridin-2-yl)-5-(1H-pyrazol-4-yl)-1H-pyrazolo[4,3-b]pyridine], the concentration for a half-maximal effect (EC50) (in test [1]; with SW480 colon cancer cells; in test [2]) was more than 10 µM throughout. Besides, the inhibition at 10 µM in test [1] turned out to be 28.6%; with SW480 colon cancer cells, 3.1%; in test [2] it was 12%.

As to `c1cnc2[nH]c(-c3n[nH]c4ccc(-c5cncc(OC6CCNCC6)c5)nc34)nc2c1` [Compound 656, 3-(3H-Imidazo[4,5-b]pyridin-2-yl)-5-(5-(piperidin-4-yloxy)pyridin-3-yl)-1H-pyrazolo[4,3-b]pyridine], the half-maximal effective concentration (EC50) in test [1] is 6.27 µM; with SW480 colon cancer cells, more than 10 µM; in test [2], more than 10 µM. The inhibition at 10 µM is 11.4% in the test with SW480 colon cancer cells and 22.1% in test [2].

As to `Oc1cncc(-c2ccc3[nH]nc(-c4nc5cccnc5[nH]4)c3n2)c1` [Compound 661, 5-(3-(3H-Imidazo[4,5-b]pyridin-2-yl)-1H-pyrazolo[4,3-b]pyridin-5-yl) pyridin-3-ol], the EC50 (in test [1]; with SW480 colon cancer cells; in test [2]) was more than 10 µM in each case. The figures for the inhibition at 10 µM (in test [1]; with SW480 colon cancer cells; in test [2]) were 6.2%, 13% and 7.2%, respectively.

For the compound `O=C(CC1CCNCC1)Nc1cncc(-c2ccc3[nH]nc(-c4nc5c(-c6ccsc6)ccnc5[nH]4)c3n2)c1` [Compound 673, 2-(Piperidin-4-yl)-N-(5-(3-(7-(thiophen-3-yl)-3H-imidazo[4,5-b]pyridin-2-yl)-1H-pyrazolo[4,3-b]pyridin-5-yl)pyridin-3-yl)acetamide], the figures for the EC50 (in test [1]; in the test on SW480 colon cancer cells; in test [2]) were 4.75 µM, more than 10 µM and more than 10 µM, respectively. Also, the results for the inhibition at 10 µM (in the test on SW480 colon cancer cells; in test [2]) were 0.6% and 26.9%, respectively.

Regarding `Cc1ncc(-c2ccc3[nH]nc(-c4nc5c(-c6ccoc6)ccnc5[nH]4)c3n2)n1C` [Compound 685, 5-(1,2-Dimethyl-1H-imidazol-5-yl)-3-(7-(furan-3-yl)-3H-imidazo[4,5-b]pyridin-2-yl)-1H-pyrazolo[4,3-b]pyridine], the concentration giving a half-maximal response (EC50) is more than 10 µM in test [1], 4.19 µM with SW480 colon cancer cells and 2.82 µM in test [2]. For the same compound, the inhibition at 10 µM in test [1] was 0%.

`c1cc(-c2ccoc2)c2nc(-c3n[nH]c4ccc(-c5cncc(OCCN6CCCC6)c5)nc34)[nH]c2n1` [Compound 690, 3-(7-(Furan-3-yl)-3H-imidazo[4,5-b]pyridin-2-yl)-5-(5-(2-(pyrrolidin-1-yl)ethoxy)pyridin-3-yl)-1H-pyrazolo[4,3-b]pyridine]: the results for the EC50 (in test [1]; in the test on SW480 colon cancer cells; in test [2]) were 4.75 µM, more than 10 µM and more than 10 µM, respectively. Besides, the inhibition at 10 µM with SW480 colon cancer cells worked out at 26.6%; in test [2], 37.6%.

`COc1cncc(-c2ccc3[nH]nc(-c4nc5c(-c6ccoc6)ccnc5[nH]4)c3n2)c1` [Compound 692, 3-(7-(Furan-3-yl)-3H-imidazo[4,5-b]pyridin-2-yl)-5-(5-methoxypyridin-3-yl)-1H-pyrazolo[4,3-b]pyridine]: the concentration giving a half-maximal response (EC50) in test [1] is 1.32 µM; in the test on SW480 colon cancer cells, more than 10 µM; in test [2], more than 10 µM. In addition, the inhibition at 10 µM with SW480 colon cancer cells was determined as 17.6%; in test [2] it was 15.3%.

For `Cn1cc(-c2ccc3[nH]nc(-c4nc5c(-c6cccs6)ccnc5[nH]4)c3n2)cn1` [Compound 700, 5-(1-Methyl-1H-pyrazol-4-yl)-3-(7-(thiophen-2-yl)-3H-imidazo[4,5-b]pyridin-2-yl)-1H-pyrazolo[4,3-b]pyridine], the EC50 was 0.438 µM in test [1], more than 10 µM in the test on SW480 colon cancer cells and more than 10 µM in test [2]. For the same compound, the inhibition at 10 µM with SW480 colon cancer cells came to 0.1%; in test [2] it was 3.4%.

For `CN(C)CCOc1cncc(-c2ccc3[nH]nc(-c4nc5c(-c6cccs6)ccnc5[nH]4)c3n2)c1` [Compound 707, N,N-Dimethyl-2-((5-(3-(7-(thiophen-2-yl)-3H-imidazo[4,5-b]pyridin-2-yl)-1H-pyrazolo[4,3-b]pyridin-5-yl)pyridin-3-yl)oxy)ethan-1-amine], the half-maximal effective concentration (EC50) in test [1] amounted to 2.43 µM; in the test with SW480 colon cancer cells, 3.87 µM; in test [2] it was 3.57 µM.

`Cc1ccc(-c2ccnc3[nH]c(-c4n[nH]c5ccc(-c6cncc(OC7CCCCC7)c6)nc45)nc23)s1` [Compound 735, 5-(5-(Cyclohexyloxy)pyridin-3-yl)-3-(7-(5-methylthiophen-2-yl)-3H-imidazo[4,5-b]pyridin-2-yl)-1H-pyrazolo[4,3-b]pyridine]: the EC50 in test [1] was 0.139 µM; with SW480 colon cancer cells it was more than 10 µM; in test [2], 0.984 µM. Also, the inhibition at 10 µM in the test on SW480 colon cancer cells was 10.9%.

For the compound `Cn1cc(-c2ccc3[nH]nc(-c4nc5c(-c6cc(F)cc(CNS(C)(=O)=O)c6)ccnc5[nH]4)c3n2)cn1` [Compound 764, N-(3-Fluoro-5-(2-(5-(1-methyl-1H-pyrazol-4-yl)-1H-pyrazolo[4,3-b]pyridin-3-yl)-3H-imidazo[4,5-b]pyridin-7-yl)benzyl)methanesulfonamide], the EC50 (in test [1]; in the test with SW480 colon cancer cells; in test [2]) was more than 10 µM throughout. The values for the inhibition at 10 µM (in test [1]; in the test on SW480 colon cancer cells; in test [2]) were 26.8%, 0% and 20.9%, respectively.

Turning to `CS(=O)(=O)NCc1cc(F)cc(-c2ccnc3[nH]c(-c4n[nH]c5ccc(-c6cncc(NC(=O)CC7CCNCC7)c6)nc45)nc23)c1` [Compound 769, N-(5-(3-(7-(3-Fluoro-5-(methylsulfonamidomethyl)phenyl)-3H-imidazo[4,5-b]pyridin-2-yl)-1H-pyrazolo[4,3-b]pyridin-5-yl)pyridin-3-yl)-2-(piperidin-4-yl)acetamide], the figures for the EC50 (in test [1]; with SW480 colon cancer cells; in test [2]) were 4.46 µM, more than 10 µM and more than 10 µM, respectively. Also, the figures for the inhibition at 10 µM (with SW480 colon cancer cells; in test [2]) were 8.5% and 12.1%, respectively.

In the case of `CN(C)CCNc1cc(F)cc(-c2ccnc3[nH]c(-c4n[nH]c5ccc(-c6cncc(OCCN7CCCC7)c6)nc45)nc23)c1` [Compound 786, N^1-(3-Fluoro-5-(2-(5-(5-(2-(pyrrolidin-1-yl)ethoxy)pyridin-3-yl)-1H-pyrazolo[4,3-b]pyridin-3-yl)-3H-imidazo[4,5-b]pyridin-7-yl)phenyl)-N^2,N^2-dimethylethane-1,2-diamine], the half-maximal effective concentration (EC50) worked out at 2.9 µM in test [1], 9.87 µM in the test on SW480 colon cancer cells and 6.25 µM in test [2].

Take `CN(C)CCNc1cc(F)cc(-c2ccnc3[nH]c(-c4n[nH]c5ccc(-c6cnccn6)nc45)nc23)c1` [Compound 792, N^1-(3-Fluoro-5-(2-(5-(pyrazin-2-yl)-1H-pyrazolo[4,3-b]pyridin-3-yl)-3H-imidazo[4,5-b]pyridin-7-yl)phenyl)-N^2,N^2-dimethylethane-1,2-diamine]: the 50% effective concentration (EC50) in test [1] amounted to 2.24 µM; in the test with SW480 colon cancer cells, 4.37 µM; in test [2] it was 3.93 µM.

As for `COc1cccc(-c2ccnc3[nH]c(-c4n[nH]c5ccc(-c6cncc(OC7CCNCC7)c6)nc45)nc23)c1` [Compound 1025, 3-(7-(3-Methoxyphenyl)-3H-imidazo[4,5-b]pyridin-2-yl)-5-(5-(piperidin-4-yloxy)pyridin-3-yl)-1H-pyrazolo[4,3-b]pyridine], the EC50 was 2.91 µM in test [1], more than 10 µM in the test on SW480 colon cancer cells and more than 10 µM in test [2]. Further, the inhibition at 10 µM with SW480 colon cancer cells stood at 15.8%; in test [2], 39.2%.

For the compound `COc1cccc(-c2ccnc3[nH]c(-c4n[nH]c5ccc(-c6cncc(O)c6)nc45)nc23)c1` [Compound 1030, 5-(3-(7-(3-Methoxyphenyl)-3H-imidazo[4,5-b]pyridin-2-yl)-1H-pyrazolo [4,3-b]pyridin-5-yl)pyridin-3-ol], the concentration giving a half-maximal response (EC50) (in test [1]; in the test with SW480 colon cancer cells; in test [2]) was more than 10 µM each time. In addition, the figures for the inhibition at 10 µM (in test [1]; in the test with SW480 colon cancer cells; in test [2]) were 48%, 3% and 33.5%, respectively.
